For assay [1], the species on record is Rattus norvegicus. The experiment in a line: Antinociceptive activity in rat assessed as protection from p-phenylquinone-induced writhing. In kind it is functional.
For assay [2], the species on record is Rattus norvegicus. The experiment in a line: Inhibition of meperidine-induced antinociceptive activity in rat by D'Amour-Smith thermal stimulus test. Format: functional.
For assay [3], the system named is Rattus norvegicus. The experiment in a line: Antinociceptive activity in rat at 120 mg/kg, sc by D'Amour-Smith thermal stimulus test. In kind it is functional, organism-based. More on the design: dose 120 mg/kg.
In assay [4] the test system is Rattus norvegicus. The experiment in a line: Inhibition of meperidine-induced antinociceptive activity in rat at 80 mg/kg, sc by D'Amour-Smith thermal stimulus test. Format: functional, organism-based. Details: dose 80 mg/kg.
The test system of assay [5] is Rattus norvegicus. The experiment in a line: Antinociceptive activity in rat assessed as protection from p-phenylquinone-induced writhing at 100 mg/kg, sc. More on the design: dose 100 mg/kg. Format: functional, organism-based.
For assay [6], the system named is Rattus norvegicus. In words: Antinociceptive activity in rat at 60 mg/kg, sc by D'Amour-Smith thermal stimulus test. Format: functional, organism-based. More on the design: dose 60 mg/kg.
Assay [7] relates to Rattus norvegicus. In words: Inhibition of meperidine-induced antinociceptive activity in rat at 40 mg/kg, sc by D'Amour-Smith thermal stimulus test. Format: functional, organism-based. Details: dose 40 mg/kg.

Active and inactive are the calls of the source. The calls are words filed in the database; no cut-off is given here.

Regarding `C/C(=C\CN1CC[C@@]2(C)c3cc(O)ccc3C[C@@H]1[C@@H]2C)CO` (racemic), the ED50 in the assay listed under Rattus norvegicus [1] was determined as 37 mg/kg. The AD50 in the assay listed under Rattus norvegicus [2] is above 320 mg/kg.

In the case of `CCOC(=O)CN1CC[C@@]2(C)c3cc(O)ccc3C[C@@H]1[C@@H]2C` (racemic), the outcome in the assay with Rattus norvegicus [3] was inactive. The compound also yielded an AD50 in the assay listed under Rattus norvegicus [2] of 66 mg/kg.

Turning to `CC(=O)CCN1CC[C@@]2(C)c3cc(O)ccc3C[C@@H]1[C@@H]2C` (racemic), the ED50 in the assay listed under Rattus norvegicus [1] turned out to be 22 mg/kg. The result with Rattus norvegicus [3] was inactive. In the assay filed under Rattus norvegicus [2], this compound displayed an AD50 of 1.7 mg/kg.

Turning to `C[C@H]1[C@H]2Cc3ccc(O)cc3[C@]1(C)CCN2CCC(C)(C)O` (racemic), the ED50 in the assay listed under Rattus norvegicus [1] came out at 37 mg/kg. Further, the inhibition entry in the assay with Rattus norvegicus [4] was “inactive”. In addition, the result in the assay with Rattus norvegicus [3] was inactive.

In the assay filed under Rattus norvegicus [2], `CC(C)C(=O)CN1CC[C@@]2(C)c3cc(O)ccc3C[C@@H]1[C@@H]2C` (racemic) returned an AD50 of 2.8 mg/kg.

As to `C/C(=C\CN1CC[C@@]2(C)c3cc(O)ccc3C[C@@H]1[C@@H]2C)C(=O)O` (racemic), in the assay on Rattus norvegicus [5], the outcome was inactive. Besides, in the assay filed under Rattus norvegicus [2], the AD50 result was “inactive”.

For `C[C@H]1[C@H]2Cc3ccc(O)cc3[C@]1(C)CCN2CC(=O)O` (racemic), in the assay with Rattus norvegicus [6], the result was inactive. In the assay with Rattus norvegicus [7], the inhibition entry was “inactive”.

As to `CC(C)=CCN1CC[C@]2(C)c3cc(O)ccc3C[C@H]1[C@H]2C` [(+)-PENTAZOCINE], in the assay filed under Rattus norvegicus [1], the ED50 came to 2.3 mg/kg. For the same compound, the outcome in the assay on Rattus norvegicus [3] was inactive. The AD50 in the assay filed under Rattus norvegicus [2] amounted to 3.9 mg/kg.
